Source: patent US10239871B2, “Compounds and methods for regulating integrins” (ADHAERE PHARMACEUTICALS, INC., priority 2012, dated 2019)
“Also recorded” adds a separate entry of the source.

How the values were obtained:
[1] = molecular target: T1, CD11b/CD18 (Mus musculus, UniProt P05555); experiment: Cell adhesion assay, RAW 264.7 cells on immobilized fibrinogen; type: cell-based, murine; details: vs basal 1 mM Ca2+ and Mg2+
T1 construct: that have constitutive CD11b/CD18 surface expression were used; host or cells: RAW 264.7 murine macrophage cell line
Procedure: (§1) K562 cells stably transfected with plasmid encoding wild-type integrin CD11b/CD18 (K562 WT cells) have been described previously and were maintained in Iscove's Modified Dulbecco's Medium (IMDM) supplemented with 10% FBS and G418 (0.5 mg/ml). The murine macrophage cell line (RAW 264.7 cells) was obtained from ATCC and the cells were maintained in DMEM supplemented with 10% heat-inactivated FBS according to the manufacturer's instructions. The primary rat peritoneal macrophages were isolated from the wild type Fisher 344 rats that had been previously injected with 5 mL of Brewer's thioglycolate broth (Sigma-Aldrich). Macrophage purity was directly analyzed by single channel flow cytometry using rat macrophage specific monoclonal antibodies ED1 (AbD Serotec, Raleigh, N.C.), WT.5 (BD Biosciences) and His36 (BD Biosciences). Purity was typically >85%. Macrophages were used in assays immediately upon isolation.
(§2) Cell adhesion assays using K562 WT, murine RAW 264.7 cells and the primary rat macrophages were performed as previously described and used immobilized fibrinogen as the ligand of CD11b/CD18 [49]. […] The remaining adherent cells were fixed using 4% formaldehyde and quantified by imaging microscopy as previously described (22, 63). […]

[2] = test system: CD11b/CD18; experiment: Cell adhesion assay, primary rat macrophages on immobilized fibrinogen; type: cell-based; details: vs non-activating Ca2+ and Mg2+
Procedure: as §1, §2

[3] = test system: Diabetic nephropathy; experiment: Diabetic nephropathy model (BTBR ob/ob mouse); type: in vivo
Procedure: The efficacy of LA1 was tested in an experimental model of Diabetic nephropathy (DN), where inflammation plays a major role. It was surmised that reducing leukocyte activation, recruitment and influx can be a beneficial strategy for developing therapeutics against DN.

[4] = test system: Human macrophages; experiment: mRNA levels of pro-inflammatory factors in LPS-treated human macrophages; type: cell-based; details: co-treated with LPS
Procedure: It was shown that β2 integrin agonist leukdherin LA1 modulates the expression levels of various pro-inflammatory factors in cells. Human macrophages were treated with LPS in the absence or presence of LA1 in vitro and determined the levels of mRNA in the cells at various time points using Nanostring inflammation array (184 genes) and exiqon microRNA panels.

[5] = test system: C57BL/6J mice; experiment: Survival after sublethal total body irradiation; type: in vivo; details: 20 μg/animal for seven days
Procedure: Control groups (16 mice per group) of 6-8 weeks old C57BL/6J mice received a single sublethal dose (6 Gy) of total body radiation (TBI) and were monitored for survival with radiation alone. The experimental groups (16 mice per group) of 6-8 weeks old C57BL/6J received a single sublethal dose (6 Gy) of total body radiation (TBI) and were administered leukadherin LA1 (20 μg/animal) for seven consecutive days. Additionally, two additional control groups of animals were monitored—animals with no treatment at all or animals that were administered LA1 for seven consecutive days in the absence of any irradiation.

[6] = test system: Human macrophages; experiment: TNF-α release from human macrophages; type: cell-based
[7] = test system: neutrophil chemotaxis; details: previously shown [55]; cited from earlier work
[8] = molecular target: T2, CD11b/CD18 (Homo sapiens, UniProt P11215); experiment: Cell adhesion assay, K562 WT cells on immobilized fibrinogen; type: cell-based; set-up: K562 cells stably transfected with plasmid encoding wild-type integrin CD11b/CD18; expressed in transfected cells; details: vs basal Ca2+ plus Mg2+ (1 mM each); leukadherins 15 μM, mAbs 20 μg/mL, Mn2+ 1 mM
Procedure: as §1, §2

[9] = molecular target: T2, CD11b/CD18; experiment: Flow cytometry with conformation reporter mAbs KIM127 and 24 on K562 WT cells; type: cell-based; set-up: K562 cells stably transfected with plasmid encoding wild-type integrin CD11b/CD18; expressed in transfected cells; details: LA1 15 uM, Mn2+ 1 mM; vs basal
Procedure: Flow cytometric analyses of K562 WT cells were performed according to published protocols. Briefly, cells were suspended in the assay buffer (Tris-buffered saline (TBS) containing 1 mM of ions Ca2+ and/or Mg2+ and 0.1% BSA). Cells ([…]) were incubated with primary mAb (1:100 dilution of IB4 ascites or the isotype controls, 1:50 […] and 24 and the relevant isotype controls, where incubations were performed at 37 °C) for 30 minutes. Subsequently, the cells were washed three times with the assay buffer and incubated with goat anti-mouse-APC (1 µg/ml, Invitrogen) for 20 minutes at 4° C. Cells were washed twice with the assay buffer and analyzed using FACSCaliber flow cytometer (BD Biosciences, CA), counting at least 10,000 events. Data was analyzed using the CellQuest software (BD Biosciences). Data shown is from one of at least three independent experiments.
Ligand binding induces extension of the integrin heterodimer and large, global conformational changes leading to outside-in signaling. Binding of activating antibodies also induces global conformational changes in the integrin heterodimer and such large conformational changes mimic those induced upon ligand binding. […] Thus, mAb KIM127 is often used as a reporter for the extended conformation of P2 integrins. […]

[10] = daily administration, fully diabetic animals

T1 sequence (P05555 17-1153): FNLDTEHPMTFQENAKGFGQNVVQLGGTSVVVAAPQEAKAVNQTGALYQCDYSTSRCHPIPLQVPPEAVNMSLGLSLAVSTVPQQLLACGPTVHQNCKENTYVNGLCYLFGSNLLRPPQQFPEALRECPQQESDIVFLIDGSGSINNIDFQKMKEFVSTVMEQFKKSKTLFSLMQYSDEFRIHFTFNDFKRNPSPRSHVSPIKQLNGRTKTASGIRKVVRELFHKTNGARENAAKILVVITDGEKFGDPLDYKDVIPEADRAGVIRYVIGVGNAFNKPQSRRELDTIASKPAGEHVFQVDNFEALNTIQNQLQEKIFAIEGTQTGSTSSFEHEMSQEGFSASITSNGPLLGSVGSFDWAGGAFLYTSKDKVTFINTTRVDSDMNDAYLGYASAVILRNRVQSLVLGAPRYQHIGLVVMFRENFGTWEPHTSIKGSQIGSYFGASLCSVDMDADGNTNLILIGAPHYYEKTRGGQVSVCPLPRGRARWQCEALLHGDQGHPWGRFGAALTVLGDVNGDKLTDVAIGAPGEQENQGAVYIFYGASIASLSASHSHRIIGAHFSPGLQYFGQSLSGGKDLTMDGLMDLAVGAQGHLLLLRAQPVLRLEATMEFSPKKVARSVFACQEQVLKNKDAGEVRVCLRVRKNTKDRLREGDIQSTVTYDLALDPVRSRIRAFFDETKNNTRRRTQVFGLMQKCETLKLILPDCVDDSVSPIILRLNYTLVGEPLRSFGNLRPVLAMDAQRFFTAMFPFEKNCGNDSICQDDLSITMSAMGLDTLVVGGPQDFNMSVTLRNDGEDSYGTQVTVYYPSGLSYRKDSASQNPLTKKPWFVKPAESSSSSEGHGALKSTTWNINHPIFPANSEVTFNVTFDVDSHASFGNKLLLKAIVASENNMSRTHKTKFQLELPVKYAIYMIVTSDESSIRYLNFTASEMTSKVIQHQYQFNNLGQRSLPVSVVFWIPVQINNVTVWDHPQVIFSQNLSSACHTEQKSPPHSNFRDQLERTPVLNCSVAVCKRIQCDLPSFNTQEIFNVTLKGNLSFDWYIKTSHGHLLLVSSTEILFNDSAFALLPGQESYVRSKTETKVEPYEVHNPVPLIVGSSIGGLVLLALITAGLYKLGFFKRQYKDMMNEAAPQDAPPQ
T1 sequence (P11835 24-771 partner): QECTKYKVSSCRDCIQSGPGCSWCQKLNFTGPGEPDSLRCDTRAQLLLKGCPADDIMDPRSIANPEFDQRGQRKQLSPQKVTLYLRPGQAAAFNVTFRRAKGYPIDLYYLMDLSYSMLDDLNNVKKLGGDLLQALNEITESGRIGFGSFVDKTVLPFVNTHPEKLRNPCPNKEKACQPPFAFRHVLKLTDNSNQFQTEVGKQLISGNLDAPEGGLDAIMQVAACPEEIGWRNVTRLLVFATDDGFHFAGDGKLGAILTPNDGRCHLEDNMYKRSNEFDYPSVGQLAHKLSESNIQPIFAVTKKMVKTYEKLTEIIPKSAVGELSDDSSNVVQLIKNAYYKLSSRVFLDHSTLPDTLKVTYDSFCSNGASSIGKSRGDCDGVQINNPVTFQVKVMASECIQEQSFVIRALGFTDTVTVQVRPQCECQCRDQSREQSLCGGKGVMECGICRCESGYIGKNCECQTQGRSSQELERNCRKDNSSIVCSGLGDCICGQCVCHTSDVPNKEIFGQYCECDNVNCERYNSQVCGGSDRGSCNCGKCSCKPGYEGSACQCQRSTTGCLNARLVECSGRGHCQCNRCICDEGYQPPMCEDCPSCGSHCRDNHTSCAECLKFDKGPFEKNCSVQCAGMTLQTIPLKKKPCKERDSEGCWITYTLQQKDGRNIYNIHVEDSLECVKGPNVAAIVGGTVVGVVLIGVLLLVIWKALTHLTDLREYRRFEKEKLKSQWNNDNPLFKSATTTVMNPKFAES

O=C(O)c1ccc(-c2ccc(/C=C3\SC(=S)N(Cc4ccccc4)C3=O)o2)cc1 [LA1]
adhesion of RAW 264.7 cells to immobilized fibrinogen [1]: significantly and similarly increased the level of cell adhesion
adhesion of primary rat macrophages to immobilized fibrinogen [2]: significantly enhanced the level of macrophage adhesion
glomerular damage and glomerular mesangial sclerosis ([3]; BTBR ob/ob mouse model): reduced glomerular damage and glomerular mesangial sclerosis
kidney function [3, 10]: preserved kidney function
number of infiltrating leukocytes in the kidney [3, 10]: significantly reduced the number of infiltrating leukocytes
mRNA levels of pro-inflammatory factors upregulated by LPS [4]: significantly reduced
animal mortality ([5]; with or without 6 Gy TBI): did not result in any increase in animal mortality
effect on survival after sublethal TBI ([5]; 6 Gy TBI): protective effect
cellular morphology ([6]; LA1 alone): no effect on cellular morphology
TNF-α release from stimulated macrophages ([6]; dsRNA antigen (R848) plus LA1, lupus patients and healthy volunteers): significantly reduced the TNF-α release; also recorded: significantly impaired
TNF-α induction by LA1 alone ([6]; over 24 hrs): did not induce TNF-α
neutrophil chemotaxis [7]: impairs neutrophil chemotaxis
adhesion of K562 WT cells to immobilized fibrinogen [8]: significantly increased
binding of conformation reporter KIM127 [9]: very small increase
binding of conformation reporter mAb 24 [9]: small increase
